The text below walks through data of ChEMBL document CHEMBL4602684, “Siderophores from the Entomopathogenic Fungus Beauveria bassiana” (J Nat Prod, 2020).

Assay [1] is described as follows: Binding affinity to Fe3+ assessed as formation of Fe3+-compound complex stoichiometry ratio of 2:1 by HRESIMS method.
Assay [2] in a line: Binding affinity to Fe3+ assessed as formation of Fe3+-compound complex stoichiometry ratio of 3:1 by HRESIMS method.
The nature of assay [3]: Binding affinity to Fe3+ assessed as formation of Fe3+-compound complex at 100 ug/disk by CAS agar disk diffusion method.
Assay [4] can be described thus: Binding affinity to Fe3+ assessed as formation of Fe3+-compound complex stoichiometry ratio of 1:1 by HRESIMS method.
A short description of assay [5]: Binding affinity to Fe3+ assessed as formation of Fe3+-compound complex incubated for 22 hrs by liquid CAS assay.
The nature of assay [6]: Binding affinity to Fe3+ assessed as formation of Fe3+-compound complex in presence of FeCl3 by HRESIMS method.

Molecules are shown by their SMILES. Where a name gives a salt, the structure may show the parent alone. The source made the active and inactive calls. The calls are words filed in the database; no cut-off is given here.

For `CO[C@H]1[C@H](O)[C@H](O)[C@H](OCC/C(C)=C/C(=O)N(O)CCC[C@@H](C(=O)O)N(C)C)O[C@@H]1CO`, the result in assay [1] and in assay [4] was Active. Besides, the result in assay [2] and in assay [3] was inactive.
The term EC50 denotes the concentration that produces a half-maximal response. On to `CC(=O)N(O)CCCCCNC(=O)CCC(=O)N(O)CCCCCNC(=O)CCC(=O)N(O)CCCCCN` [DEFEROXAMINE MESYLATE], for which the EC50 in assay [5] is 20 µM.
With `CO[C@H]1[C@H](O)[C@H](O)[C@H](OCC[C@@](C)(O)CC(=O)N(O)CCC[C@@H]2NC(=O)[C@H](CCCN(O)C(=O)/C=C(\C)CCO)NC2=O)O[C@@H]1CO`, the result in assay [3] and in assay [6] was Active.
For `C[C@@](O)(CCO)CC(=O)N(O)CCC[C@@H]1NC(=O)[C@H](CCCN(O)C(=O)C[C@](C)(O)CCO)NC1=O`, the outcome in assay [3] and in assay [6] was Active.
Take `C/C(=C\C(=O)NCCC[C@@H]1NC(=O)[C@H](CCCNC(=O)/C=C(\C)CCO)NC1=O)CCO`: the outcome in assay [3] and in assay [6] was inactive.
For `C/C(=C\C(=O)N(O)CCC[C@@H]1NC(=O)[C@H](CCCN(O)C(=O)/C=C(\C)CCO[C@@H]2O[C@H](CO)[C@@H](O)[C@H](O)[C@@H]2O)NC1=O)CCO`, the outcome in assay [3] and in assay [6] was Active.
For `CO[C@H]1[C@H](O)[C@H](O)[C@H](OCC/C(C)=C/C(=O)N(O)CCC[C@@H]2NC(=O)[C@H](CCCN(O)C(=O)/C=C(\C)CCO)NC2=O)O[C@@H]1CO`, the result in assay [3] and in assay [6] was Active.
Regarding `C/C(=C\C(=O)N(O)CCC[C@@H](N)C(=O)O)CCO`, the outcome in assay [3] was inactive.
As to `C/C(=C\C(=O)N(O)CCC[C@@H]1NC(=O)[C@H](CCCN(O)C(=O)C[C@](C)(O)CCO)NC1=O)CCO`, the outcome in assay [3] and in assay [6] was Active.
Regarding `CO[C@H]1[C@H](O)[C@H](O)[C@H](OCC/C(C)=C/C(=O)N(O)CCC[C@@H](C(=O)O)[N+](C)(C)[O-])O[C@@H]1CO`, the result in assay [1] and in assay [4] was Active. Further, the outcome in assay [2] and in assay [3] was inactive.
Regarding `C/C(=C\C(=O)N(O)CCC[C@@H]1NC(=O)[C@H](CCCN(O)C(=O)/C=C(\C)CCO[C@@H]2O[C@H](CO)[C@@H](O)[C@H](O)[C@@H]2O)NC1=O)CCOC(=O)[C@H](CCCN(O)C(=O)/C=C(\C)CCO[C@@H]1O[C@H](CO)[C@@H](O)[C@H](O)[C@@H]1O)[N+](C)(C)[O-]`, the result in assay [3] and in assay [6] was Active. In addition, in assay [5], the EC50 came to 15.7 µM.
For `C/C(=C\C(=O)N(O)CCC[C@@H]1NC(=O)[C@H](CCCN(O)C(=O)C[C@](C)(O)CCO[C@@H]2O[C@H](CO)[C@@H](O)[C@H](O)[C@@H]2O)NC1=O)CCO`, the result in assay [3] and in assay [6] was Active.
In the case of `C/C(=C\C(=O)N(O)CCC[C@@H]1NC(=O)[C@H](CCC[N+](=O)[O-])NC1=O)CCO`, the result in assay [1] and in assay [4] was Active. Further, the outcome in assay [2] and in assay [3] was inactive.
For the compound `C/C(=C\C(=O)N(O)CCC[C@@H]1NC(=O)[C@H](CCCN(O)C(=O)/C=C(\C)CCO)NC1=O)CCO`, the outcome in assay [3] and in assay [6] was Active. Further, in assay [5], the EC50 was found to be 13 µM.
